Test results taken from patent EP4775575A1, “COMPOUND USED AS CDK4 KINASE INHIBITOR AND USE THEREOF” (TYK Medicines, Inc., priority 2023, dated 2025).
pIC50: −log10 of the molar value.

How the values were obtained:
CDK4/CycD1 = CDK4/CycD1 (Homo sapiens, UniProt P11802); test: Kinase activity assay (MSA, EZ Reader) against CDK4
[1] = tested on: human mantle cell lymphoma cells JEKO-1; test: Cell anti-proliferation assay (MTT), JEKO-1; assay type: cell-based; conditions: Homo sapiens, 120 h, JEKO-1 cells, incubated for 5 days
Procedure, shortened: (§1)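 Cells in DMEM with 10% FBS were seeded at 50,000 cells/mL and grown overnight at 37 °C, 5% CO2, then treated at 9 concentrations (3-fold serial dilution, 0.1% DMSO medium). MTT was added for 3 h, formazan dissolved in acidified isopropanol/NP-40, and absorbance read at 570 nm.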

CDK6/CyclinD3 = biological target: T1, CDK6/CyclinD3 (Homo sapiens, UniProt Q00534); test: Kinase activity assay (MSA, EZ Reader) against CDK6; assay type: biochemical; conditions: CDK6/CyclinD3 5.00 nM, ATP 350 µM, FL-Peptide34, 10mM MgCl2
T1 construct: purchased Carna 04-107

[2] = tested on: human ovarian cancer cells A2780; test: Cell anti-proliferation assay (MTT), A2780; assay type: cell-based; conditions: Homo sapiens, 120 h, incubated for 5 days
Procedure, shortened: as §1

[3] = tested on: Human breast cancer cells MCF-7; test: Cell anti-proliferation assay (MTT), MCF-7; assay type: cell-based; conditions: Homo sapiens, MCF7, 120 h, MCF-7 cells, incubated for 5 days
Procedure, shortened: as §1

CDK4/CycD1, sequence (P11802 whole entry): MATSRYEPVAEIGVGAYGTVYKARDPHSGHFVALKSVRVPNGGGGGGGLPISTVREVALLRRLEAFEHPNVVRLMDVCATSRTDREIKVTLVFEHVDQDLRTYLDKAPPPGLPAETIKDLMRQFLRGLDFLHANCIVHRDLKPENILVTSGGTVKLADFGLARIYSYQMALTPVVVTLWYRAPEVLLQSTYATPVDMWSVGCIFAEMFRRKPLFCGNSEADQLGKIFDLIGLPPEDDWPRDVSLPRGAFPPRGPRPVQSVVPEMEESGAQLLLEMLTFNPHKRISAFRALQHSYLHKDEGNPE
T1 sequence (Q00534 whole entry): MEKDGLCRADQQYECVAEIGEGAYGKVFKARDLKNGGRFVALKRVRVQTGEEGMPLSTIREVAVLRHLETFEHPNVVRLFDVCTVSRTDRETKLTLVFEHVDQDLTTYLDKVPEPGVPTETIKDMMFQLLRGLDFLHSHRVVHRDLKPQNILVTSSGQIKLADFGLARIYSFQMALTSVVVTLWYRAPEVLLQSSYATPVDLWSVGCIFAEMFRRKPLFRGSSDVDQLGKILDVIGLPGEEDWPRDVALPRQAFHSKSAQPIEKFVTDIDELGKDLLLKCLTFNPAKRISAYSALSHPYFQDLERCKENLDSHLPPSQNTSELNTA
T1 sequence (P30281 whole entry partner): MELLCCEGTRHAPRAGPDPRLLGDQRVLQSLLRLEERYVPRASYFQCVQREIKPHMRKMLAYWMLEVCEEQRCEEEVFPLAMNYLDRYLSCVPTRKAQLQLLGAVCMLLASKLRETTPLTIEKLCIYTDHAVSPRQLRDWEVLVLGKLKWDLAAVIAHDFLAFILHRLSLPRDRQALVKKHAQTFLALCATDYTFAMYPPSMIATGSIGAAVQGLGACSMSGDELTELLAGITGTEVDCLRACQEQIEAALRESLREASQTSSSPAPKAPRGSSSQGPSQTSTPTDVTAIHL

Structure (SMILES) | pIC50 (CDK4/CycD1) | pIC50 [1] | pIC50 (CDK6/CyclinD3) | pIC50 [2] | pIC50 [3]
CC(C)n1c(N2CC[C@@H](O)C2)nc2c(F)cc(-c3nc(N[C@@H]4CCOC[C@H]4O)ncc3Cl)cc21 [TB-7, (R)-1-(6-(5-chloro-2-(((3S,4R)-3-hydroxytetrahydro-2H-pyran-4-yl)amino)pyrimidin-4-yl)-4-fluoro-1-isopropyl-1H-benzo[d]imidazol-2-yl)pyrrolidin-3-ol] | 8.53 | ≥ 6.30 | 6.95 | ≥ 6.30 | ≥ 6.30
C[C@@H]1C[C@H](C)n2c(nc3c(F)cc(-c4nc(N[C@@H]5CCOC[C@H]5O)ncc4Cl)cc32)N1C [TB-154] | 8.52 | ≥ 6.30 | 7.12 | ≥ 6.30 | ≥ 6.30
CC(C)n1c(N2CC(O)C2)nc2c(F)cc(-c3nc(N[C@@H]4CCOC[C@H]4O)ncc3Cl)cc21 [TB-14, 1-(6-(5-chloro-2-(((3S,4R)-3-hydroxytetrahydro-2H-pyran-4-yl)amino)pyrimidin-4-yl)-4-fluoro-1-isopropyl-1H-benzo[d]imidazol-2-yl)azetidin-3-ol] | 8.20 | ≥ 6.30 | 6.63 | ≥ 6.30 | ≥ 6.30
CC1(C)CSc2nc3c(F)cc(-c4nc(N[C@@H]5CCOC[C@H]5O)ncc4Cl)cc3n2C1 [TB-146] | 7.92 | ≥ 6.30 | 7.22 | ≥ 6.30 | ≥ 6.30
CC(C)n1c(N2CCCOC2=O)nc2c(F)cc(-c3nc(N[C@@H]4CCOC[C@H]4O)ncc3Cl)cc21 [TB-25] | 7.36 | ≥ 6.30 | < 6.30 | ≥ 6.30 | 5.70 to 6.30
COc1cc(N2CCNCC2)ccc1Nc1ncc(Cl)c(-c2cc(F)c3nc(N(C)C)n(C(C)C)c3c2)n1 [TB-17, 6-(5-chloro-2-((2-methoxy-4-(piperazin-1-yl)phenyl)amino)pyrimidin-4-yl)-4-fluoro-1-isopropyl-N,N-dimethyl-1H-benzo[d]imidazol-2-amine] | 7.47 | 5.70 to 6.30 | 6.53 | 5.70 to 6.30 | 5.70 to 6.30
COC(=O)N(C)c1nc2c(F)cc(-c3nc(N[C@@H]4CCOC[C@H]4O)ncc3Cl)cc2n1C(C)C [TB-8, methyl (6-(5-chloro-2-(((3S,4R)-3-hydroxytetrahydro-2H-pyran-4-yl)amino)pyrimidin-4-yl)-4-fluoro-1-isopropyl-1H-benzo[d]imidazol-2-yl)(methyl)carbamate] | 7.73 | ≥ 6.30 | 6.48 | ≥ 6.30 | 5.70 to 6.30
CC(C)n1c(N2CC[C@H](O)C2)nc2c(F)cc(-c3nc(N[C@@H]4CCOC[C@H]4O)ncc3Cl)cc21 [TB-6, (S)-1-(6-(5-chloro-2-(((3S,4R)-3-hydroxytetrahydro-2H-pyran-4-yl)amino)pyrimidin-4-yl)-4-fluoro-1-isopropyl-1H-benzo[d]imidazol-2-yl)pyrrolidin-3-ol] | 7.97 | ≥ 6.30 | 6.72 | ≥ 6.30 | 5.70 to 6.30
CC(C)n1c(N2CCOC2=O)nc2c(F)cc(-c3nc(NC4CCN(S(C)(=O)=O)CC4)ncc3Cl)cc21 [TB-26] | 7.73 | ≥ 6.30 | 6.70 | ≥ 6.30 | ≥ 6.30
C[C@H]1CCN(c2ccc(F)cc2F)c2nc3c(F)cc(-c4nc(N[C@@H]5CCOC[C@H]5O)ncc4Cl)cc3n21 [TC-13] | 8.48 | ≥ 6.30 | 7.13 | ≥ 6.30 | ≥ 6.30
CC(C)n1c(N2CCOC2=O)nc2c(F)cc(-c3nc(NC4CCN(S(=O)(=O)C5CC5)CC4)ncc3Cl)cc21 [TB-33] | 8.08 | ≥ 6.30 | 7.21 | ≥ 6.30 | ≥ 6.30
CC(C)n1c(N2CCCC2)nc2c(F)cc(-c3nc(N[C@@H]4CCOC[C@H]4O)ncc3Cl)cc21 [TB-11, (3S,4R)-4-((5-chloro-4-(4-fluoro-1-isopropyl-2-(pyrrolidin-1-yl)-1H-benzo[d]imidazol-6-yl)pyrimidin-2-yl)amino)tetrahydro-2H-pyran-3-ol] | 8.19 | ≥ 6.30 | 6.70 | ≥ 6.30 | ≥ 6.30
CNS(=O)(=O)c1ccc(Nc2ncc(Cl)c(-c3cc(F)c4nc5n(c4c3)C(C)CCN5C)n2)cc1 (stereo not drawn) [TB-53, 4-((5-chloro-4-(9-fluoro-1,4-dimethyl-1,2,3,4-tetrahydrobenzo[4,5]imidazo[1,2-a]pyrimidin-7-yl)pyrimidin-2-yl)amino)-N-methylbenzenesulfonamide] | 7.98 | ≥ 6.30 | 7.25 | ≥ 6.30 | ≥ 6.30
CC(C)n1c(N(C)C)nc2c(F)cc(-c3nc(N[C@@H]4CCOC[C@H]4O)ncc3Cl)cc21 [TB-1] | 8.43 | ≥ 6.30 | 7.17 | ≥ 6.30 | ≥ 6.30
CC(C)n1c(N2CCOC2=O)nc2c(F)cc(-c3nc(NC4CCN(S(C)(=O)=O)CC4)ncc3F)cc21 [TB-28] | 8.07 | ≥ 6.30 | 6.81 | ≥ 6.30 | ≥ 6.30
C[C@H]1CCN(c2ccc(C#N)cc2)c2nc3c(F)cc(-c4nc(N[C@@H]5CCOC[C@H]5O)ncc4Cl)cc3n21 [TC-17] | 8.35 | ≥ 6.30 | < 6.30 | ≥ 6.30 | ≥ 6.30
CC(C)n1c(N2CCOC2=O)nc2c(F)cc(-c3nc(NC4CCN(S(=O)(=O)C(C)C)CC4)ncc3Cl)cc21 [TB-32] | 7.91 | ≥ 6.30 | 6.84 | ≥ 6.30 | ≥ 6.30
C[C@H]1CCN(CC(C)(C)O)c2nc3c(F)cc(-c4nc(N[C@@H]5CCOC[C@H]5O)ncc4Cl)cc3n21 [TC-7] | 8.43 | ≥ 6.30 | 6.81 | ≥ 6.30 | ≥ 6.30
